Experimental data from article PMC3661498 (Ophthalmology and Eye Diseases, 2010).
Where two headings read alike, the source gives them in different places.

Legend:
HSV-1 [1] = assay: In vitro antiviral testing, CPE inhibition, HSV-1; format: cell-based; conditions: Human alphaherpesvirus 1, read-out: EC50 HSV-1 CPE inhibition
HSV-2 = assay: In vitro antiviral testing, CPE inhibition, HSV-2; format: cell-based; conditions: Human alphaherpesvirus 2, read-out: EC50 HSV-2 CPE inhibition
[2] = Transport of drug/prodrugs across freshly excised rabbit cornea; format: in vitro ADME; conditions: New Zealand albino, rabbit, pH 7.4
HSV-1 [3] = conditions: read-out: EC50 HSV-1; cited from earlier work
[4] = tested on: [^3H] alanine uptake by rPCEC; assay: Uptake of [3H] alanine by rPCEC in presence of prodrugs, kinetics and affinity; format: cell-based, rabbit
[5] = tested on: [^3H] arginine uptake by rPCEC; assay: Uptake of [3H] arginine by rPCEC in presence of prodrugs; format: cell-based, rabbit; conditions: 5 mM test substance
[6] = tested on: [^3H] phenylalanine uptake by rPCEC; assay: Uptake of [3H] phenylalanine by rPCEC in presence of prodrugs; format: cell-based, rabbit; conditions: 5 mM test substance
isolated rabbit cornea = assay: Transport of drug/prodrugs across freshly excised rabbit cornea; format: in vitro ADME; conditions: in presence of 5 mM glutamic acid

In the case of `Nc1nc2c(ncn2COCCO)c(=O)[nH]1` [ACV, acyclovir], the EC50 (HSV-1 [1]) is reported as 7.1 µM, the EC50 (HSV-2) is reported as 6.6 µM and the Papp at 3 h, 1 mM [2] is reported as 2.33 ± 0.73 ×10⁻⁶ cm/s.

In the case of `CC(C)[C@H](N)C(=O)OCCOCn1cnc2c(=O)[nH]c(N)nc21` [VACV, valacyclovir], the EC50 (HSV-1 [3]) is listed as 9.1 µM.

With `C[C@H](N)C(=O)O` [alanine, L-alanine] the “Effect on [^3H] alanine uptake (in words)” value ([4]; 5 mM test substance) was “significantly inhibited”, the “Vmax of alanine uptake” value ([4]; no inhibitor, listed as [^3H] alanine) was 0.84 μmoles·min^−1·mg protein^−1 and the Km ([4]; read-out: Km of alanine uptake, no inhibitor) was 710 µM.

In the case of `N=C(N)NCCC[C@H](N)C(=O)O` [arginine, L-arginine], the “Effect on [^3H] arginine uptake (in words)” value [5] is reported as “significantly inhibited”.

With `N[C@@H](Cc1ccccc1)C(=O)O` [phenylalanine] the “Effect on [^3H] phenylalanine uptake (in words)” value [6] was “significantly inhibited”.

In the case of `O=C(O)CCC(=O)O` [succinate], the “Effect on transcorneal flux (in words)” value (isolated rabbit cornea) is reported as “did not cause any significant change”.
